The results in this text go back to patent publication US20240342292A1, “Compounds for the Degradation of EGFR Kinase” (BeiGene Switzerland GmbH, priority 2021, published 2024).

Read-outs that look alike come from different tables or passages of the source.

The term DC50 denotes the concentration giving 50% degradation. Read a high DC50 as degradation only at high concentration. Broadly, the Dmax is the greatest extent of degradation seen. A low value points to a partial loss of target.

The conditions of data set [1]: amide bond, 15-membered ring.
In a further data set the test system is Del19/T790M/C797S EGFR. As to the kind of experiment: EGFR degradation HTRF assay in H1975-clone #28 (DTC) cells. The format is cell-based. As to conditions: H1975 # 28 DTC (Del19/T790M/C797S), 16h treatment; for DC50: HTRF; for Dmax (%): maximum percentage of degradation. A digest of the protocol: (§1)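 Remaining EGFR protein was measured by HTRF (337 nm excitation, 665/620 nm emission) in lysates after overnight antibody incubation. Cells had been exposed for 16 h to an 8-point, 5-fold series starting at 10 uM, and DC50 values were fitted with a Hill equation.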
A general note: In TR-FRET formats the signal depends on donor and acceptor labels being close together.

Another data set addresses T1, L858R/T790M/C797S EGFR (Homo sapiens, UniProt P00533, C797S/L858R/T790M).
T1 construct: expressed in transfected cells; host or cells: H1975 clone #25 (lentiviral over-expression, endogenous EGFR knocked out by sgRNA)
As to the kind of experiment: EGFR degradation HTRF assay in H1975-clone #25 (LTC) cells. Format: cell-based. The conditions noted are these: 16h treatment; for DC50: H1975 # 25-LTC (L858R/T790M/C797S), HTRF; for Dmax: NCI-H1975, H1975 # 25-LTC (L858R/T790M/C797S), maximum percentage of degradation. A digest of the protocol: as §1

Another data set relates to Del19/C797S EGFR. As to the kind of experiment: EGFR degradation HTRF assay in H1975-clone #23 (DC) cells. As to conditions: H1975 #23 DC (Del19/C797S), 16h treatment. Format: cell-based. From the text:
H1975-clone #28(Del19/T790M/C797S, or abbr: DTC), H1975-clone #23(Del19/C797S, or abbr: DC), H1975-clone #25(L858R/T790M/C797S, or abbr: LTC) and H1975-clone #8 (L858R/C797S, or abbr: LC). EGFR-Del19:T790M/C797S, EGFR-Del19/C797S, EGFR-L858R/T790M/C797S and EGFR-L858R/C797S were stably expressed in H1975 cell lines by lentivirus-mediated over-expression, respectively. The EGFR over-expressed cells then underwent knockout, in which the EGFR targeting sgRNA was designed to only target the endogenous EGFR copies and preserve the exogenous EGFR copies. Followed by the knockout, the edited H1975 cells were seeded in 96 well plates at the concentration of […], cultured for about 2 weeks to allow single clones formation. The formed clones were screened by DNA sequencing and whole exon sequencing analysis for the desired edition. H1975-clone #28, H1975-clone #23, H1975-clone #25 and H1975-clone #8 were finally confirmed as homozygous Del19/T790M/C797S EGFR, Dell9/C797S EGFR, L858R/T790M/C797S EGFR and L858R/C797S EGFR clones, respectively.
H1975-#25, H1975-#28, H1975-#23 and H1975-#8 cells are treated with compounds diluted in 0.2% DMSO cell culture medium on day 2, incubate for 16h, 37° C., 5% CO2. the final concentration of compounds in all assay is start with 10 uM, 5-fold dilution, total 8 doses were included.
After 16h treatment, add HTRF lysis buffer to each well; seal the plate and incubate 1 hour at room temperature on a plate shaker; Once the cells are lysed, 16 μL of cell lysate are transferred to a PE 384-well HTRF detection plate; 4 μL of pre-mixed HTRF antibodies are added to each well; Cover the plate with a plate sealer, spin 1000 rpm for 1 min, Incubate overnight at room temperature; Read on BMG PheraStar with HTRF protocol (337 nm-665 nm-620 nm).
The IC50 (DC50) value of a compound can be obtained by fitting the following equation
Y=Bottom+(TOP−Bottom)/(1+((IC50/X)^hillslope))
Wherein, X and Y are known values, and IC50, Hillslope, Top and Bottom are the parameters obtained by fitting with software. Y is the inhibition percentage (calculated from the equation), X is the concentration of the compound: IC50 is the concentration of the compound when the 50% inhibition is reached. The smaller the IC50 value is, the stronger the inhibitory ability of the compound is. Vice versa, the higher the IC50 value is, the weaker the ability the inhibitory ability of the compound is: Hillslope represents the slope of the fitted curve, generally around 1*; Bottom represents the minimum value of the curve obtained by data fitting, which is generally 0%±20%; Top represents the maximum value of the curve obtained by data fitting, which is generally 100%±20%. The experimental data were fitted by calculating and analyzing with Dotmatics data analysis software.

T1 sequence (P00533 25-1210 T790M/C797S/L858R): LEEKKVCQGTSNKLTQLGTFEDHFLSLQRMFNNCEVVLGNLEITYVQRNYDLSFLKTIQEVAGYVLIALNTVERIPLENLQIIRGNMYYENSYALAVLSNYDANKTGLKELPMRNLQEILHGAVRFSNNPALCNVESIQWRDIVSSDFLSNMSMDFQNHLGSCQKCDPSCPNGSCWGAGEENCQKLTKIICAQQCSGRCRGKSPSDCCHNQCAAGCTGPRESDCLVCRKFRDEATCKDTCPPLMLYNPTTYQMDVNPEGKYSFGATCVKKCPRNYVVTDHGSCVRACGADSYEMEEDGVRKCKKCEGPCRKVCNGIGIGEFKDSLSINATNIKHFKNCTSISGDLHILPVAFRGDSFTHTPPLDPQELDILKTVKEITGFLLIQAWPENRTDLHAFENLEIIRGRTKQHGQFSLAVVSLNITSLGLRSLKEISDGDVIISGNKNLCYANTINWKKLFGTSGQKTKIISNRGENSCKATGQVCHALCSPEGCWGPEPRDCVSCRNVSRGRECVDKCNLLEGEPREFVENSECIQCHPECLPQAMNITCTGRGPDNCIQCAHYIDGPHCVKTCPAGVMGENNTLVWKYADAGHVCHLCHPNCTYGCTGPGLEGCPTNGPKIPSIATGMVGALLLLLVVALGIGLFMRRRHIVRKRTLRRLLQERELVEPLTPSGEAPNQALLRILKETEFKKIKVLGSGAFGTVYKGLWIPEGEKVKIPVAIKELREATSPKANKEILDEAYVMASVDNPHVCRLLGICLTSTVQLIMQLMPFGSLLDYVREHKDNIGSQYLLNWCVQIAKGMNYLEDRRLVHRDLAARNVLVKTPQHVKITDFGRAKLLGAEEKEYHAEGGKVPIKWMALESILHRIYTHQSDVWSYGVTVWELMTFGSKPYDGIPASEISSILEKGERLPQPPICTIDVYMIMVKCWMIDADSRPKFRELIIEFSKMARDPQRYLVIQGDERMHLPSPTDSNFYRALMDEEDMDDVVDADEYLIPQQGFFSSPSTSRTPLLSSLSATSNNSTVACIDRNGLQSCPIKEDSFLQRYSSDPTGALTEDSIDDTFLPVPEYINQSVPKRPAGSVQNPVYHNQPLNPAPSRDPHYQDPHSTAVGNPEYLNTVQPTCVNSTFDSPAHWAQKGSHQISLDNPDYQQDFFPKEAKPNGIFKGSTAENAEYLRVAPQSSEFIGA

In turn, “tert-butyl (R,E)-3-oxo-4-(1^1,2^6,7-trimethyl-3-oxo-5^2,5^3-dihydro-1^1H,5^1H-11-oxa-4-aza-5(2,1)-benzo[d]imidazola-2(2,4)-pyridina-1(4,5)-pyrazolacycloundecaphane-5′-yl)piperazine-1-carboxylate” had a ring closure, isolated yield in data set [1] (HATU/DIEA, DCM, 155.0 mM, 25.0 °C) of 51.4%.
Consider `Cc1cc2cc(n1)-c1cnn(C)c1OCCC[C@@H](C)CN1/C(=N/C2=O)Nc2ccc(CN3CCN(C(=O)[C@@H]4CCN(c5cc(F)c([C@H]6CCC(=O)NC6=O)c(F)c5)C4)CC3)cc21` [Example 5, (R)-3-(2,6-difluoro-4-((R)-3-(4-(((R,E)-1^1,2^6,7-trimethyl-3-oxo-5^2,5^3-dihydro-1^1H,5^1H-11-oxa-4-aza-5(2,1)-benzo[d]imidazola-2(2,4)-pyridina-1(4,5)-pyrazolacycloundecaphane-5^6-yl)methyl)piperazine-1-carbonyl)pyrrolidin-1-yl)phenyl)piperidine-2,6-dione], for which the values for the DC50 in the data set on Del19/T790M/C797S EGFR, at L858R/T790M/C797S EGFR and in the data set on Del19/C797S EGFR (HTRF) were 1.5 nM, 2 nM and 0.6 nM, respectively. Also, the “Dmax (%)” value with Del19/T790M/C797S EGFR is recorded as 72.0%; with Del19/C797S EGFR (maximum percentage of degradation), 67.6%. In addition, on L858R/T790M/C797S EGFR, the greatest degradation seen (Dmax) amounted to 83%.
In data set [1] (from Cc1cc(C(=O)O)cc(-c2cnn(C)c2OCCC[C@@H](C)Cn2c(N)nc3ccc(Br)cc32)n1, TBTU/TEA, DCM, 117.0 mM, 20.0 °C), `Cc1cc2cc(n1)-c1cnn(C)c1OCCC[C@@H](C)Cn1c(nc3ccc(Br)cc31)NC2=O` had a ring closure, isolated yield of 82%.
`COC(=O)c1cc(C)nc(-c2cnn(C)c2OCC[C@H]2C[C@@H]2Cn2c(=N)[nH]c3ccc(Br)cc32)c1` returned a ring closure, isolated yield in data set [1] (the molecule shown is the open-chain precursor, LiHMDS, DMF/THF, 56.7 mM, 25.0 °C) of 49.6%.
`COC(=O)c1cc(C)nc(-c2cnn(C)c2OCCC[C@@H](C)Cn2c(N)nc3ccc(N4CCC5(CC4=O)OCCO5)cc32)c1` displayed a ring closure, isolated yield in data set [1] (the molecule shown is the open-chain precursor, LiHMDS, DMF/THF, 32.0 mM, 0.0 °C) of 54.5%.
Consider `Cc1cc2cc(n1)-c1cnn(C)c1OCCC[C@@H](C)CN1/C(=N/C2=O)Nc2ccc(CN3CCC4(CC3)CN(CCc3cc(F)c([C@H]5CCC(=O)NC5=O)c(F)c3)C4)cc21` [Example 23, (R)-3-(2,6-difluoro-4-(2-(7-(((R,E)-1^1,2^6,7-trimethyl-3-oxo-5^2,5^3-dihydro-1^1H,5^1H-11-oxa-4-aza-5(2,1)-benzo[d]imidazola-2(2,4)-pyridina-1(4,5)-pyrazolacycloundecaphane-5^6-yl)methyl)-2,7-diazaspiro[3.5]nonan-2-yl)ethyl)phenyl)piperdine-2,6-dione], for which, in the data set on Del19/T790M/C797S EGFR, the half-maximal degradation concentration (DC50) turned out to be 2.1 nM and the “Dmax (%)” value came to 78.0%. Further, at L858R/T790M/C797S EGFR, half-maximal degradation (DC50) was put at 2.3 nM and the greatest degradation seen (Dmax) came to 91.8%.
The corresponding values for `Cc1cc2cc(n1)-c1cnn(C)c1OCCC1CC1CN1/C(=N/C2=O)Nc2ccc(C(=O)N(C)C3CCN(CCc4cc(F)c([C@H]5CCC(=O)NC5=O)c(F)c4)CC3)cc21` (stereo partly drawn) [Example 234, (E)-N-(1-(4-((R)-2,6-dioxopiperidin-3-yl)-3,5-difluorophenethyl)piperidin-4-yl)-N,1^1,2^6-trimethyl-3-oxo-5^2,5^3-dihydro-1^1H,5^1H-10-oxa-4-aza-5(2,1)-benzo[d]imidazola-2(2,4)-pyridina-1(4,5)-pyrazola-7(1,2)-cyclopropanacyclodecaphane-5^6-carboxamide] are 0.637 nM, 85.75%, 1.09 nM and 90.1%.
For `Cc1cc2cc(n1)-c1cnn(C)c1OCCC[C@@H](C)CN1/C(=N/C2=O)Nc2ccc(CN3CCN(C(=O)[C@H]4CN(c5cc(F)c([C@H]6CCC(=O)NC6=O)c(F)c5)CC4(C)C)CC3)cc21` [Example 77, (R)-3-(4-((R)-3,3-dimethyl-4-(4-(((R,E)-1^1,2^6,7-trimethyl-3-oxo-5^2,5^3-dihydro-1^1H,5^1H-11-oxa-4-aza-5(2,1)-benzo[d]imidazola-2(2,4)-pyridina-1(4,5)-pyrazolacycloundecaphane-5-yl)methyl)piperazine-1-carbonyl)pyrrolidin-1-yl)-2,6-difluorophenyl)piperidine-2,6-dione], in that order: 2.2 nM, 78.3%, 1.7 nM and 83.4%.
`Cc1cc2cc(n1)-c1c(C)nn(C)c1OCCC[C@@H](C)CN1/C(=N/C2=O)Nc2ccc(C(=O)N(C)C3CCN(CCc4cc(F)c([C@H]5CCC(=O)NC5=O)c(F)c4)CC3)cc21` [Example 233, (R,E)-N-(1-(4-((R)-2,6-dioxopiperidin-3-yl)-3,5-difluorophenethyl)piperidin-4-yl)-N,1^1,1^3,2^6,7-penta methyl-3-oxo-5^2,5^3-dihydro-1^1H,5^1H-11-oxa-4-aza-5(2,1)-benzo[d]imidazola-2(2,4)-pyridina-1(4,5)-pyrazolacycloundecaphane-5^6-carboxamide]: in the data set with Del19/T790M/C797S EGFR, it took 0.806 nM to reach half-maximal degradation (DC50) and the “Dmax (%)” value was determined as 86.73%. On L858R/T790M/C797S EGFR, the DC50 was found to be 1.05 nM and the maximal degradation (Dmax) was determined as 91.2%.
For `Cc1cc2cc(n1)-c1cnn(C)c1OCCC[C@@H](C)CN1/C(=N/C2=O)Nc2ccc(C(=O)N(C)[C@@H]3CCN(CCc4cc(F)c([C@H]5CCC(=O)NC5=O)c(F)c4)C[C@H]3C)cc21` [Example 257, (R,E)-N—((3R,4R)-1-(4-((R)-2,6-dioxopiperidin-3-yl)-3,5-difluorophenethyl)-3-methylpiperidin-4-yl)-N,1^1,2^6,7-tetramethyl-3-oxo-5^2,5^3-dihydro-1^1H,5^1H-11-oxa-4-aza-5(2,1)-benzo[d]imidazola-2(2,4)-pyridina-1(4,5)-pyrazolacycloundecaphane-5^6-carboxamide], in the data set with Del19/T790M/C797S EGFR, the DC50 amounted to 0.57 nM and the “Dmax (%)” value is listed as 80.82%. Moreover, at L858R/T790M/C797S EGFR, half-maximal degradation (DC50) was put at 0.512 nM and the greatest degradation seen (Dmax) came to 88%.
The corresponding values for `Cc1cc2cc(n1)-c1cnn(C)c1OCCC[C@@H](C)CN1/C(=N/C2=O)Nc2ccc(C(=O)N(C)C[C@@H]3CCN(CCc4cc(F)c([C@H]5CCC(=O)NC5=O)c(F)c4)CC3(F)F)cc21` [Example 273, (R,E)-N—(((S)-1-(4-((R)-2,6-dioxopiperidin-3-yl)-3,5-difluorophenethyl)-3,3-difluoropiperidin-4-yl)methyl)-N,1′,2,7-tetramethyl-3-oxo-5^2,5^3-dihydro-1^1H,5^1H-11-oxa-4-aza-5(2,1)-benzo[d]imidazola-2(2,4)-pyridina-1(4,5)-pyrazolacycloundecaphane-5^6-carboxamide] are 0.489 nM, 66.66%, 4.58 nM and 88.8%.
